For data set [1], the target named is T1, Potassium-transporting ATPase (Sus scrofa) (UniProt P18434+P19156). Put plainly: Inhibition of procine gastric H+,K+-ATPase at 100 uM in vitro. It is filed as tissue-based. The note with it: Stomach.
Data set [2] has as its target T1, Potassium-transporting ATPase (Sus scrofa). The experiment in a line: Inhibition of procine gastric H+,K+-ATPase at 10 uM in vitro. The note with it: Stomach. It is filed as tissue-based.
The target is the same in data set [3]. Put plainly: Inhibition of procine gastric H+,K+-ATPase at 1 uM in vitro. It is filed as tissue-based. The note with it: Stomach.
A short description of data set [4]: Michaelis-Menten constant of the compound. The note with it: pig. It is filed as ADME, Sus scrofa.
Data set [5] in a line: Vmax value was measured at 10 uM concentration of silyl ether. Format: ADME, Sus scrofa. The note with it: pig.
Data set [6] can be described thus: Vmax value was measured at 5 uM concentration of silyl ether. It is filed as ADME, Sus scrofa. The note with it: pig.
Data set [7] has as its target Potassium-transporting ATPase (Sus scrofa, UniProt P19156). Put plainly: Tested for inhibitory activity against gastric H+, K+-ATPase. It is filed as tissue-based, Stomach.
Data set [8] in a line: Vmax value was measured at 0 uM concentration of silyl ether. Format: ADME, Sus scrofa. As to conditions: pig.

Structures are written as SMILES. pIC50: −log10 of the molar value.

Potassium-transporting ATPase, sequence (P18434 whole entry): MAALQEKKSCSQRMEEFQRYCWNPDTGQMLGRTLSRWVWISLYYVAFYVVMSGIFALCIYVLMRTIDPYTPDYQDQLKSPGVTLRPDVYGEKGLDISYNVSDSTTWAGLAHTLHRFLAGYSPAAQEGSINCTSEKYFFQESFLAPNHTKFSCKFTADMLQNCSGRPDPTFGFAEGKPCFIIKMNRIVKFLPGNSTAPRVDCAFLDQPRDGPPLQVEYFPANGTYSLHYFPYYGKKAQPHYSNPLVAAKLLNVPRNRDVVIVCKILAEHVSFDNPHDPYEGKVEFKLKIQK
Potassium-transporting ATPase, sequence (P19156 whole entry): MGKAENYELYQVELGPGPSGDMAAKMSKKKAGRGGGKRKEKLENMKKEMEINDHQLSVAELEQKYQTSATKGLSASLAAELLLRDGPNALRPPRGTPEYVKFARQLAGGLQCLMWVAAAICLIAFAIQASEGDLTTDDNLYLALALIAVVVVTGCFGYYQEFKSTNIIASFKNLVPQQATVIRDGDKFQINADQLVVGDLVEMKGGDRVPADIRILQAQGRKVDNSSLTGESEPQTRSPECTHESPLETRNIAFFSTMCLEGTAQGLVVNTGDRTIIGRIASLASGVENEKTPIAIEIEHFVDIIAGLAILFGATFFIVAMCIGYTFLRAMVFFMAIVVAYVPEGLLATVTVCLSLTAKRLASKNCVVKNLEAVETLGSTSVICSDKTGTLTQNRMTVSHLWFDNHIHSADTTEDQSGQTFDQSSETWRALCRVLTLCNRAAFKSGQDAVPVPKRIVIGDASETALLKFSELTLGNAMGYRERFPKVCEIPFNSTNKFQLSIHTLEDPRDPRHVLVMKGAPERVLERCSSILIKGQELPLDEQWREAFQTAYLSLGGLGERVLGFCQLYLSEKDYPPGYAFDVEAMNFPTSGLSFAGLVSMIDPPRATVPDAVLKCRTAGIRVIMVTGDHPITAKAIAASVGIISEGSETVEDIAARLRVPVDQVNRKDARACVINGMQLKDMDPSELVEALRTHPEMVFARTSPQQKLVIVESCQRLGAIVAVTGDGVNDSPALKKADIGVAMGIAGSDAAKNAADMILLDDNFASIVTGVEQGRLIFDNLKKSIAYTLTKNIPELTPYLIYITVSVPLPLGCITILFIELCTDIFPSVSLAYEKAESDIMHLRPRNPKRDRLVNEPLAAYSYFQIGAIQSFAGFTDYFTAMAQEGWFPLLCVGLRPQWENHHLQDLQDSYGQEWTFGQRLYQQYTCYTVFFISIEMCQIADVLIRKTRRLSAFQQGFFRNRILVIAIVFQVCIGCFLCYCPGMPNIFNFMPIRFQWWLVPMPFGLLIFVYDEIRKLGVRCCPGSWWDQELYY

By inhibition is commonly meant the relative decrease from the control value, in per cent. Regarding `CO[C@H]1C[C@@H]2CC(=O)c3ccccc3[C@]23CC[C@@]1(C)C3`, the inhibition in data set [1] amounted to 42%; in data set [2], 17%.
Turning to `C[C@]12C=CC3=CC(=O)c4ccccc4[C@@]3(CC1)C2`, the inhibition came to 61% in data set [1], 9% in data set [2] and 16% in data set [3].
Usually Km stands for the substrate concentration at which the rate is half of its maximum. What is called Vmax is the top rate of the reaction or transport when substrate is in excess. One may read the pIC50 as −log10 of the IC50, conventionally taken in molar units. Read a high pIC50 as a low IC50. With `CC1=CCC(CC(O[Si](C)(C)C(C)(C)C)c2ccccc2I)C(=O)CC1` (configuration not stated), the Michaelis constant (Km) in data set [4] was 460 µM. For the same compound, the Vmax in data set [5] was determined as 31 µM/h/mg; in data set [6], 63 µM/h/mg; in data set [8] it was 125 µM/h/mg. For the same compound, the negative logarithm of the IC50 (pIC50) in data set [7] was 5.09. For the same compound, the inhibition came to 95% in data set [1], 74% in data set [2] and 30% in data set [3].
For the compound `C=C[C@@]1(C)C[C@@H]1C(=O)CCC(O[Si](C)(C)C(C)(C)C)c1ccccc1I` (some centres not stated), the inhibition in data set [1] was found to be 80%; in data set [2], 50%; in data set [3], 29%.
For `COCO[C@H]1C[C@@H]2CC(=O)C3[C@@H](C#N)CCC[C@]3(C)[C@]23CC[C@@]1(C)C3` (some centres not stated), in that order: 17%, 7% and 5%.
As to `C[C@]12CC[C@]3(C1)[C@H](CC2=O)C[C@@H](OC(=O)c1ccccc1)[C@H]1[C@](C)(C(=O)O)CCC[C@@]13C`, the inhibition in data set [1] was 62%; in data set [2] it was 21%; in data set [3], 7%.
For `C[C@]12CC[C@@]3(C1)c1ccccc1C(=O)C[C@H]3C[C@@H]2O`, in that order: 0%, 19% and 18%.
For `COCO[C@H]1C[C@@H]2C[C@@H](O[Si](C)(C)C)C3[C@@H](C#N)CCC[C@]3(C)[C@]23CC[C@@]1(C)C3` (some centres not stated) the same measures were 67%, 32% and 4%.
For `C=C1CCC(C)=CCC1CC(O[Si](C)(C)C(C)(C)C)c1ccccc1I` (configuration not stated), in that order: 98%, 63% and 15%.
`C[C@]12CCC3=CC(=O)c4ccccc4[C@@]3(CC1)C2`: the inhibition was 52% in data set [1], 9% in data set [2] and -2% in data set [3].
For `CO[C@H]1C[C@@H]2C[C@@H]3OC(=O)c4cccc(c43)[C@]23CC[C@@]1(C)C3` the same measures were 55%, 16% and 1%.
Take `CC1=CCC(CCO)C(=O)CC1` (configuration not stated): the inhibition in data set [1] is 34%; in data set [2], 9%; in data set [3] it was 11%.
For `C=C[C@@]1(C)C[C@@H]1C(=O)CCC(O)c1ccccc1I` (some centres not stated) the same measures were 63%, 35% and 8%.
For `C=C1CCC(C)=CC[C@@H]1C[C@H](/C=C(\I)CCCC1OCCO1)O[Si](C)(C)C(C)(C)C`, in that order: 93%, 63% and 14%.
For `C=C1CCC(C)=CC[C@@H]1C[C@@H](O)C#CCCCC1OCCO1`, in that order: 20%, 13% and 8%.
`CO[C@H]1C[C@@H]2CC(=O)C3=C(CCC[C@@]3(C)CO)[C@]23CC[C@@]1(C)C3`: the inhibition in data set [1] was found to be 8%; in data set [2], 14%; in data set [3], 9%.
For `COCO[C@H]1C[C@@H]2C[C@@H](O[Si](C)(C)C)C3[C@](C#N)(COCc4ccccc4)CCC[C@]3(C)[C@]23CC[C@@]1(C)C3` (some centres not stated) the same measures were 52%, 44% and 25%.
For `COC(=O)[C@]1(C)CCC[C@@]2(C)[C@H]1[C@H](OC(=O)c1ccccc1)C[C@H]1CC(=O)[C@@]3(C)CC[C@]12C3`, in that order: 81%, 74% and 36%.
For `CO[C@H]1C[C@@H]2C[C@H](O)c3c(C(=O)O)cccc3[C@]23CC[C@@]1(C)C3`, in that order: 21%, 0% and -6%.
Turning to `C[C@]12CC[C@]3(C1)C(=CC(=O)c1ccccc13)C[C@@H]2O`, the inhibition stood at 17% in data set [1], 17% in data set [2] and 8% in data set [3].
Regarding `CC1=CCC(CC(O)c2ccccc2I)C(=O)CC1` (configuration not stated), the figures for the inhibition in data set [1], in data set [2] and in data set [3] were 72%, 19% and 10%, respectively.

(Values after ChEMBL document CHEMBL1150552, “Silyl ethers of cycloheptene, novel proton pump inhibitors obtained during the total synthesis of the scopadulcic acids” (Bioorg Med Chem Lett, 1995).)
